Patent publication US20250179027A1, “CYCLOALKYL OR HETEROCYCLYL SUBSTITUTED HETEROARYL COMPOUND, AND COMPOSITION AND USE THEREOF” (Shenzhen TargetRx, Inc., priority 2022, published 2025)
pIC50: −log10 of the molar value.

What was measured:
TEC = biological target: T1, TEC (Homo sapiens, UniProt P42680); experiment: HTRF kinase activity inhibition assay, TEC; format: biochemical; details: HTRF TK kit
T1 construct: purchased Carna 08-182
T1 sequence (P42680 1-631): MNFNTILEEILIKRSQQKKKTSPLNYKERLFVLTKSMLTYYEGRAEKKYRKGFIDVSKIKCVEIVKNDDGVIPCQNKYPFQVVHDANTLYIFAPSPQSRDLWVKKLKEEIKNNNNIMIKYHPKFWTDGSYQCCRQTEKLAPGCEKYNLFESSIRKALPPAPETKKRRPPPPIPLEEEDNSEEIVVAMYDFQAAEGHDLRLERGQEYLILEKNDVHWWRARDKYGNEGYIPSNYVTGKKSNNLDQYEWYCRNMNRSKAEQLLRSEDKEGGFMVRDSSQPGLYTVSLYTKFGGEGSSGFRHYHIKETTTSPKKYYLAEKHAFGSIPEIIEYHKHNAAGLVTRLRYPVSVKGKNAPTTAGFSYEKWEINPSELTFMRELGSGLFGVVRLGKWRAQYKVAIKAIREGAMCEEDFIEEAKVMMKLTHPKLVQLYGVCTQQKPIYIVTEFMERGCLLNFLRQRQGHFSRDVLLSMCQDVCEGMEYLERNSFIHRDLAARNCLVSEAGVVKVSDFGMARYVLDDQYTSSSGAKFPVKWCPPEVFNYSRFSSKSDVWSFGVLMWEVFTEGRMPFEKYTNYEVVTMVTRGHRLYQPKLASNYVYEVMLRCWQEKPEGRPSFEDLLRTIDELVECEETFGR
Text: (§1) In this assay, the HTRF TK Kit (Catalog No. 62TKOPEC) provided by Cisbio was used to detect the inhibitory activity of compounds on BTK kinase and BTK C481S kinase and the selectivity of compounds relative to EGFR, ITK and TEC kinases.
(§2) Reagents and consumables: BTK kinase (Invitrogen, Catalog No. PV3587), BTK C481S (Carna, Product No. 08-547), ITK (Carna, Product No. 08-181), EGFR (Carna, Product No. 08-115), TEC (Carna, Product No. 08-182), HTRF-TK kit (Cisbio, Product No. 62TKOPEC), MgCl2 (Sigma, Product No. M1028), MnCl2 (Sigma, Product No. M1787), DTT (Sigma, Product No. D0632), ATP (Sigma, Product No. A7699-1 g), DMSO (Sigma, Product No. D2650), 384-well plate (PE, Product No. 6008280).
(§3) The entire operation steps were carried out on ice, and the total reaction volume was 10 μL. The compound (4 μL), substrate and ATP (4 μL), kinase (2 μL) were added in sequence to a 384-well plate, and shaked for 30 seconds. After an appropriate time at room temperature, the detection reagent was added. After 1 hour at room temperature, the plate was detected with a microplate reader. The specific steps were as follows: • a) 1× kinase buffer solution required for kinase detection was calculated according to the amount of the detection compound, and prepared as needed; • b) compounds with 2.5×working concentration were prepared, the 100 times gradient concentration solution of compounds was diluted by 4 μL to the desired concentration, mixed well, and added to each well at 4 μL per well; • c) 5×working concentration of substrate and ATP were prepared, mixed in a ratio of 1:1 before adding to a 384-well plate, and added to each well at 4 μL per well; • d) 5×working concentration of kinase was prepared, and 2 μL was added to each well; • e) the plate was shaked on a microplate oscillator for 30 seconds, sealed with a sealing membrane, and reacted at room temperature for an appropriate time; • f) 4×working concentrations of streptavidin XL-665 and TK antibody-cryptate compound were prepared, mixed in a ratio of 1:1 before adding to a 384-well plate, and added to each well at 10 μL per well; • g) the plate was read after reacting at room temperature for 1 hour; • h) the wells with only substrate, ATP and 1% DMSO added but no kinase were blank control wells, and the wells with only substrate, ATP, 1% DMSO and kinase were positive control wells.
(§4) Readings: The values of 620 nm (cryptate) and 665 nm (XL665) were read with a BioTek Synerg Neo2 microplate reader, the ratio of 665/620 per well was calculated, and the data were exported. Data analysis: IC50 was calculated using GraphPad Prism 7.0 software. The following nonlinear fitting formula was used to obtain the IC50 (half inhibitory concentration) of compounds:
(§5) [formula] • X: Compound concentration log value • Y: Inhibition rate (% inhibition)
(§6) The kinase inhibition rate (% inhibition rate) was calculated as: […]

ITK = biological target: T2, ITK (Homo sapiens, UniProt Q08881); experiment: HTRF kinase activity inhibition assay, ITK; format: biochemical; details: HTRF TK kit
T2 construct: purchased Carna 08-181
T2 sequence (Q08881 1-620): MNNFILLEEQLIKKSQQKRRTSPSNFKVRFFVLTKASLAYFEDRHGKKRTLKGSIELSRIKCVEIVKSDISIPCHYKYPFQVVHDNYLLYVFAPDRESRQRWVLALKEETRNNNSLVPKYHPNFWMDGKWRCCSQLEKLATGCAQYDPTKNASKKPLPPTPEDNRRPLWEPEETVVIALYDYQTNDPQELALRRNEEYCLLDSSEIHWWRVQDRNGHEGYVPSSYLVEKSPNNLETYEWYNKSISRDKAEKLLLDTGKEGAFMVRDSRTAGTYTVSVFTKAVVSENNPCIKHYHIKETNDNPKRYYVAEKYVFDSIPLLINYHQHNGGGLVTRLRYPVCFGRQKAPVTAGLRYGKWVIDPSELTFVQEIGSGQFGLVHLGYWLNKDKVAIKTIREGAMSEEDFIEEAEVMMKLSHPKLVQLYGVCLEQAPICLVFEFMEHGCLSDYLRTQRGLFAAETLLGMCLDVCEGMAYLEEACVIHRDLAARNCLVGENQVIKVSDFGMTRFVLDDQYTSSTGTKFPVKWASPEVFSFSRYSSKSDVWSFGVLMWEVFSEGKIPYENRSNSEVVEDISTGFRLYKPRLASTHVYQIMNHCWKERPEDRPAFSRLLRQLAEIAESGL
Text: as §1, §2, §3, §4, §5, §6

BTK kinase = biological target: T3, BTK kinase (Homo sapiens, UniProt Q06187); experiment: HTRF kinase activity inhibition assay, BTK; format: biochemical; details: HTRF TK kit
T3 construct: purchased Invitrogen PV3587
Text: as §1, §2, §3, §4, §5, §6

[1] = biological target: T4, phosphorylated BTK Y223 in NIH/3T3 BTK WT cells (Homo sapiens, UniProt Q06187); experiment: Phosphor-BTK(Y223) assay, NIH/3T3 BTK WT cells; format: cell-based; details: phosphorylated BTK Y223, NIH/3T3 BTK WT cells; read-out: NIH/3T3 BTK-WT pBTK IC50
T4 construct: expressed in transfected cells; host or cells: NIH/3T3 (mouse fibroblasts) engineered to express BTK WT
Experimental: (§7) The purpose of this assay is to simply, quickly and directly detect the endogenous level of BTK in cells. The specific assay steps are as follows: Day 1: NIH/3T3 BTK WT cells (7.5 k/well) and NIH/3T3 BTK C481S cells (10 k/well) were plated in 96-well plates, respectively, and cultured overnight at 37° C. and 5% CO2.
(§8) • 1. A 3-fold final concentration gradient dilution of the compound was prepared, and 50 μL was added to 100 μL of cell culture; 0.5% DMSO was used as a positive control for cell growth. • 2. The plate was incubated at 37° C., 5% CO2 for 0.5 h. • 3. Na3VO4 with a final concentration of 1 mM was added, and incubated at 37° C. and 5% CO2 for 2 hours. • 4. During the incubation, the following reagents were prepared: 1× added lysis buffer: 3 vol ddH2O+1 vol 4× lysis buffer+100× blocking reagent. p-BTK (Y223) cryptate-antibody and p-BTK (Y223) d2-antibody working solutions: 1 volume of each cryopreserved antibody (stored at −20° C.) was added to 19 times volumes of assay buffer (stored at 4° C.). • 5. After the incubation, the medium was removed and 50 μL of 1× added lysis buffer was added; The mixture was centrifuged at 500 rpm for 30 min at room temperature. • 6. The lysate was mixed well and 16 μL was transferred to a 384-well plate; 1× added lysis buffer was used as a blank control. • 7. 4 μL of pre-mixed working solutions of the two antibodies (cryptate Ab:d2 Ab=1:1) were added and the plate was sealed. • 8. The plate was incubated overnight at room temperature.
(§9) Biotek cytation3.0 microplate reader was used to read the plate at 665 nm and 620 nm, and the ratio of 665/620 nm per well was calculated.
(§10) IC50 was calculated using GraphPad Prism 7.0 software.
(§11) The following nonlinear fitting formula was used to obtain the phosphorylated BTK Y223 IC50 (half phosphorylation inhibitory concentration) of the compounds:
as §5
(§12) The formula for calculating cell phosphorylation inhibition rate (% inhibition rate) was: […]

EGFR = biological target: T5, EGFR (Homo sapiens, UniProt P00533); experiment: HTRF kinase activity inhibition assay, EGFR; format: biochemical; details: HTRF TK kit
T5 construct: purchased Carna 08-115
Text: as §1, §2, §3, §4, §5, §6

[2] = biological target: T6, phosphorylated BTK Y223 in NIH/3T3 BTK C481S cells (Homo sapiens, UniProt Q06187, C481S); experiment: Phosphor-BTK(Y223) assay, NIH/3T3 BTK C481S cells; format: cell-based; details: phosphorylated BTK Y223, NIH/3T3 BTK C481S cells; read-out: NIH/3T3 BTK-C481S pBTK IC50
T6 construct: expressed in transfected cells; host or cells: NIH/3T3 (mouse fibroblasts) engineered to express BTK C481S
Experimental: as §7, §8, §9, §10, §11, §5, §12

T5 sequence (P00533 669-1210 limits assumed): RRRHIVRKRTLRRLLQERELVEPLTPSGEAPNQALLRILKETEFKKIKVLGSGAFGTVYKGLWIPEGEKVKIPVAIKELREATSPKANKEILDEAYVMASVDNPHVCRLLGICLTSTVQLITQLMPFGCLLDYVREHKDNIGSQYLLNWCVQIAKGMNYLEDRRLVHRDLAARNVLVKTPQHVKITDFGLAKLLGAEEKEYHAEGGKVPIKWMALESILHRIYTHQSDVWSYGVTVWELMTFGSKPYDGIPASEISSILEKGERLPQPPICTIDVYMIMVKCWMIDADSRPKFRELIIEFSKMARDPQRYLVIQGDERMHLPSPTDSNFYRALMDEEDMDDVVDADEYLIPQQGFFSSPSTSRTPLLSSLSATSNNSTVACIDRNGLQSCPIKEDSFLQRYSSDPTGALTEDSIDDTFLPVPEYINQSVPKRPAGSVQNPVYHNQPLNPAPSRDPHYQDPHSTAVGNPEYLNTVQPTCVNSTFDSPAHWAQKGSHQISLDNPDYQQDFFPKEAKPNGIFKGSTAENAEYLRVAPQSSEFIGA
T6 sequence (Q06187 whole entry C481S): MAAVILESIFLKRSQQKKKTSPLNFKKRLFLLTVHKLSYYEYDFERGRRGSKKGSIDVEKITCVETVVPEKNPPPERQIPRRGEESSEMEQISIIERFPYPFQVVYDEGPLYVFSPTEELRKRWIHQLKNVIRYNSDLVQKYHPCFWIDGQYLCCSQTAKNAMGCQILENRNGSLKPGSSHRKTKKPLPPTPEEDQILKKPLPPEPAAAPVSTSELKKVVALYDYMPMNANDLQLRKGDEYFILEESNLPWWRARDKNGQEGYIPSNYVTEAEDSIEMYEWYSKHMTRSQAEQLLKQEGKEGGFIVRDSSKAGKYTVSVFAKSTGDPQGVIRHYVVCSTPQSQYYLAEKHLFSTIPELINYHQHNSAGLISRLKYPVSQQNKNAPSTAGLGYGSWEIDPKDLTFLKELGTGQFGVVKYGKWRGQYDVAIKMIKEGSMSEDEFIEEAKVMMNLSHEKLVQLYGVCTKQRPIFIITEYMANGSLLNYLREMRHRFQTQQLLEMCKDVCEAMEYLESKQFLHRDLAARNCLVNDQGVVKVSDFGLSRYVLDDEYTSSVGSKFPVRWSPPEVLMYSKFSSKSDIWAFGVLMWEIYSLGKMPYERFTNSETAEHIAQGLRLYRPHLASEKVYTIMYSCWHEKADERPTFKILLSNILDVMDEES
T4 sequence (Q06187 whole entry): as the sequence (Q06187 whole entry C481S) above, with S481C counted along it
T3 sequence (Q06187 whole entry): as the sequence (Q06187 whole entry C481S) above, with S481C counted along it

| SMILES | pIC50 (TEC) | pIC50 (ITK) | pIC50 (BTK kinase) | pIC50 [1] | pIC50 (EGFR) | pIC50 [2] |
| --- | --- | --- | --- | --- | --- | --- |
| COc1ccc(F)cc1C(=O)NCc1ccc(-c2nn(C3CCC(O)C3)c3ncnc(N)c23)cc1 (single isomer, unassigned) [Example 35, N-(4-(4-amino-1-(3-hydroxycyclopentanyl)-1H-pyrazolo[3,4-d]pyrimidin-3-yl)benzyl)-5-fluoro-2-methoxybenzamide] | 6.00 to 7.00 | < 5.00 | ≥ 8.00 | ≥ 7.60 | 7.00 to 7.30 |  |
| COc1ccc(F)cc1C(=O)NCc1ccc(-c2nn(C3CCC(O)C3)c3ncnc(N)c23)cc1 (single isomer, unassigned) [Example 33, N-(4-(4-amino-1-(3-hydroxycyclopentanyl)-1H-pyrazolo[3,4-d]pyrimidin-3-yl)benzyl)-5-fluoro-2-methoxybenzamide] | 6.00 to 7.00 | < 5.00 | ≥ 8.00 | ≥ 7.60 | 7.00 to 7.30 |  |
| COc1ccc(F)cc1C(=O)NCc1ccc(-c2nn([C@@H]3C=C[C@@H](O)C3)c3ncnc(N)c23)cc1 (single isomer, unassigned) [Example 38, trans-N-(4-(4-amino-1-(4-hydroxycyclopent-2-en-1-yl)-1H-pyrazolo[3,4-d]pyrimidin-3-yl)benzyl)-5-fluoro-2-methoxybenzamide] |  |  |  | ≥ 7.60 |  | 7.30 to 7.60 |
| COc1ccc(F)cc1C(=O)NCc1ccc(-c2nn(C3CCC(CO)OC3)c(N)c2C(N)=O)cc1 (single isomer, unassigned) [Example 14, 5-amino-3-(4-((5-fluoro-2-methoxybenzamido)methyl)phenyl)-1-(6-(hydroxymethyl)tetrahydro-2H-pyran-3-yl)-1H-pyrazole-4-carboxamide] |  |  |  | 7.00 to 7.30 |  | 6.30 to 7.00 |
| COc1ccc(F)cc1C(=O)NCc1ccc(-c2nn(C3CCCC(O)C3)c(N)c2C(N)=O)cc1 (single isomer, unassigned) [Example 3, 5-amino-3-(4-((5-fluoro-2-methoxybenzamido)methyl)phenyl)-1-(3-hydroxycyclohexyl)-1H-pyrazole-4-carboxamide] |  |  |  | 6.30 to 7.00 |  | 6.30 to 7.00 |
| COc1ccc(F)cc1C(=O)NCc1ccc(-c2nn(C3CCCCC(O)C3)c3ncnc(N)c23)cc1 (centres unmarked) [Example 57, N-(4-(4-amino-1-(3-hydroxycycloheptyl)-1H-pyrazolo[3,4-d]pyrimidin-3-yl)benzyl)-5-fluoro-2-methoxybenzamide] |  |  |  | 7.30 to 7.60 |  | 7.00 to 7.30 |
| COc1ccc(F)cc1C(=O)NCc1ccc(-c2cc(C3CCC(CO)OC3)n3ncnc(N)c23)cc1 (single isomer, unassigned) [Example 62, N-(4-(4-amino-7-(6-(hydroxymethyl)tetrahydro-2H-pyran-3-yl)pyrrolo[2,1-f][1,2,4]triazin-5-yl)benzyl)-5-fluoro-2-methoxybenzamide] |  |  |  | ≥ 7.60 |  | 7.30 to 7.60 |
| COc1ccc(F)cc1C(=O)NCc1ccc(-c2nn(C3CCC(O)C3)c3ncnc(N)c23)cc1 (single isomer, unassigned) [Example 34, N-(4-(4-amino-1-(3-hydroxycyclopentanyl)-1H-pyrazolo[3,4-d]pyrimidin-3-yl)benzyl)-5-fluoro-2-methoxybenzamide] | 6.00 to 7.00 | < 5.00 | ≥ 8.00 | ≥ 7.60 | 7.00 to 7.30 |  |
| COc1ccc(F)cc1C(=O)NCc1ccc(-c2nn(C3CCC(O)C3)c3ncnc(N)c23)cc1 (single isomer, unassigned) [Example 36, N-(4-(4-amino-1-(3-hydroxycyclopentanyl)-1H-pyrazolo[3,4-d]pyrimidin-3-yl)benzyl)-5-fluoro-2-methoxybenzamide] | 6.00 to 7.00 | < 5.00 | ≥ 8.00 | ≥ 7.60 | 5.00 to 6.00 |  |
| COc1ccc(F)cc1C(=O)NCc1ccc(-c2nn(C3CCC(O)C3)c3ncnc(N)c23)cc1 (centres unmarked) [Example 32, N-(4-(4-amino-1-(3-hydroxycyclopentanyl)-1H-pyrazolo[3,4-d]pyrimidin-3-yl)benzyl)-5-fluoro-2-methoxybenzamide] |  |  |  | ≥ 7.60 |  | ≥ 7.60 |
